Test results as given in US20060293395A1, “Methods for treating a mammal before, during and after cardiac arrest” (priority 2004, published 2006).
Entries after “also recorded” stand apart in the source; their conditions may differ.

Columns and labels:
male domestic pigs [1] = experiment: Levosimendan on post-resuscitation myocardial function after beta-adrenergic blockade (propranolol); assay type: in vivo, pig
Procedure: Anesthesia was initiated by intramuscular injection of ketamine (20 mg/kg) and completed by ear vein injection of sodium pentobarbital (30 mg/kg). Additional doses of sodium pentobarbital (8 mg/kg) were injected to maintain anesthesia at intervals of one hour. A cuffed endotracheal tube was advanced into the trachea. Animals were mechanically ventilated with a volume-controlled ventilator (Model MA-1, Puritan-Bennett, Carlsbad, Calif.) with a tidal volume of 15 mL/kg, peak flow of 40 L/min, and FiO2 of 0.21. End-tidal PCO2 (ETCO2) was monitored with an infrared analyzer (Model 01R-7101A, Nihon Kohden Corp, Tokyo, Japan). Respiratory frequency was adjusted to maintain PETCO2 between 35 and 40 mm Hg.
For the measurement of left ventricular functions, a 5.5/7.5 […] biplane with Doppler transesophageal echocardiographic transducer with 4-way flexure (Model 21363A, Hewlett-Packard Co., Medical Products Group, Andover, Mass.) was advanced from the incisor teeth into the esophagus for a distance of approximately 35 cm. For the measurement of aortic pressure, a fluid-filled catheter was advanced from the left femoral artery into the thoracic aorta. For the measurements of right atrial, pulmonary arterial pressures and blood temperature, a 7-French, pentalumen, thermodilution-tipped catheter was advanced from the left femoral vein and flow-directed into the pulmonary artery. A 7-French catheter was advanced from the left cephalic vein into the great cardiac vein for the measurement of great cardiac vein blood gases and lactate. For inducing VF, a 5-French pacing catheter (EP Technologies, Inc., Mountain View, Calif.) was advanced from the right cephalic vein into the right ventricle.
The investigators were blinded to the randomization. Cardiac arrest was induced with 1 to 2 mA AC delivered to the endocardium of the right ventricle. Mechanical ventilation was discontinued after onset of VF. At the end of the 7-min interval of untreated VF, precordial compression was started with a pneumatic piston-driven chest compressor (Thumper, Model 1000, Michigan Instruments, Grand Rapids, Mich.). […] The compression force was adjusted to decrease the anterior-posterior diameter of the chest by 25%. After 5 min of precordial compression, defibrillation was attempted with a 150 J biphasic waveform shock delivered between the right infraclavicular area and the cardiac apex. If an organized cardiac rhythm with mean aortic pressure of more than 60 mm Hg persisted for an interval of 5 min or more, the animal was regarded as successfully resuscitated. All animals had restoration of spontaneous circulation (ROSC) after electrical defibrillation, and were then randomized to three treatment groups: (1) propranolol (0.1 mg/kg bolus at 6 min of VF); (2) propranolol plus levosimendan (at 10 min after post resuscitation, 20 μg/kg over 10 min followed by 0.4 μg/kg/min for 220 min); and (3) equal volumes of saline as placebo.
Measurements were obtained over an interval of 4 hours following resuscitation. After 4 hours, animals were euthanized by intravenous injection of 150 mg kg^−1 pentobarbital. Autopsy was performed to document injuries to the bony thorax and the thoracic and abdominal viscera.

Male Sprague-Dawley rats [2] = experiment: Example 2: dobutamine vs levosimendan for post-resuscitation myocardial failure, 8 min untreated VF + 6 min precordial compression; assay type: in vivo, rat
Procedure: The animals were anesthetized following intraperitoneal injection of 45 mg kg^−1 pentobarbital. […] No anesthetic agent was administrated during the 30 minute interval prior to inducing cardiac arrest.
Pressures were measured with a high sensitivity pressure transducer (Model 42584-01; Abbott Critical Care System, North Chicago, Ill.). The optimally damped frequency response of the system was 22 Hz. […] Guided by pressure monitoring, the catheter was slowly withdrawn into the right atrium. Right atrial pressure was measured with reference to the mid-chest with another high sensitivity pressure transducer (Abbott model 42584-01). This catheter also served as an injection site for the thermal tracer. A 4 F polyethylene catheter (model C-PMS401J; Cook Critical Care, Bloomington, Ind.) was advanced through the right external jugular vein into the right atrium. A precurved guide wire supplied with the catheter was then advanced through the catheter into the right ventricle until an endocardial electrogram was observed. Another 23-gauge polyethylene catheter (PE 50) was advanced through the left femoral artery into the abdominal aorta for measurement of aortic pressure with the same Abbott high sensitivity transducer and also for sampling arterial blood. […] The thermocouple provided for measurements of blood temperature and thermodilution cardiac output. […] An additional PE 50 catheter was advanced into right femoral vein for drug infusion. EKG lead II was continuously recorded.
Experimental Procedure: A total of 15 animals were investigated. The investigators were blinded to the intervention until immediately prior to inducing VF, at which time the principal investigator opened a sealed envelope for assignment to one of three groups: (1) levosimendan (2) dobutamine or (3) saline placebo. This allowed time for preparation of a fresh dilution of the selected drug. […] Current flow was continued for 3 minutes to prevent spontaneous defibrillation as previously described (Von Planta I, Weil MH. Cardiopulmonary resuscitation in the rat. J Appl Physiol. 1988;65(6):2641-2647). Ventilation was discontinued after onset of VF. Precordial compression was begun with a pneumatically driven mechanical chest compressor after 8 minutes of untreated VF and continued for 6 minutes. These methods have been extensively exercised and have been well-documented (see Von Plata I (supra)) and Sun SJ, Weil MH, Tang W, et al. Combined effects of buffer and adrenergic agent on postresuscitation myocardial function. J Pharm Exp Ther. 1999;291 :773-777). Coincident with the start of precordial compression, the animals were mechanically ventilated. Tidal volume was established at 6.5 ml per kg animal weight, a frequency of 100 min^−1, and on a FiO2 of 1.0.

Male Sprague-Dawley rats [3] = experiment: Example 1: post-resuscitation myocardial dysfunction after VF cardiac arrest, drug infusion for 240 min post-resuscitation
male domestic pigs [4] = experiment: Example 3: dobutamine vs levosimendan in the porcine model of cardiac arrest and cardiac resuscitation; assay type: in vivo, pig
Procedure: Experimental Preparation: The experiments were performed in the porcine model of cardiac arrest and cardiac resuscitation which has been extensively exercised. (21,22). […] Anesthesia was initiated by intramuscular injection of ketamine (20 mg kg^−1) and was completed by ear vein injection of sodium pentobarbital (30 mg kg^−1). Additional 8 mg kg^−1 doses of sodium pentobarbital were injected to maintain anesthesia at intervals of one hour. A cuffed endotracheal tube was advanced into the trachea. Animals were mechanically ventilated with a volume of 15 mL kg^−1, peak airway flow of 40 L min^−1, and FiO2 of 0.2 with the aid of a volume-controlled ventilator (Model MA-1, Puritan-Bennett, Carlsbad, Calif.). End-tidal PCO2 (PETCO2) was monitored with an infrared analyzer (Model 01R-7101A, Nihon Kohden Corp, Tokyo, Japan). Respiratory frequency was adjusted to maintain PETCO2 between 35 and 40 mmHg. Blood temperature was maintained at 37±0.5° C. with the aid of infrared heating lamps, as required.
For the measurement of left ventricular functions, a 5.5/7.5 MHz biplane with pulse-wave Doppler transesophageal echocardiographic tranducer with 4-way flexure (Model 21363A, Hewlett-Packard Co. Medical Products Group, Andover, Mass.) was advanced from the incisor teeth into the esophagus for a distance of approximately 40 cm. For the measurement of aortic pressure, a fluid filled catheter was advanced from the surgically exposed left femoral artery into the thoracic aorta. For measurements of right atrial and pulmonary arterial pressures, blood temperature and cardiac output, a 7-French, pentalumen, thermodilution-tipped catheter was advanced from the surgically exposed left femoral vein and flow-directed into the pulmonary artery. For inducing VF, a 5-French pacing catheter (EP Techologies, Inc., Mountain View, Calif.) was advanced from the surgically exposed right cephalic vein into the right ventricle. […] This catheter was then looped laterally and advanced inferiorly for a distance of 5 cm into the great cardiac vein for sampling of coronary venous blood. The electrocardiographic (EKG) lead II was continuously recorded.
Experimental procedure: A total 15 animals were investigated. […] Cardiac arrest was induced with 1 to 2 mA AC delivered to the endocardium of the right ventricle. Mechanical ventilation was discontinued after onset of VF. At the end of a 7-minute interval of untreated VF, precordial compression (PC) was started with a pneumatic piston-driven chest compressor (Thumper, Model 1000, Michigan Instruments, Grand Rapids, Mich.). Coincident with the start of PC, the animal was mechanically ventilated with a tidal volume of […] and FiO2 of 1.0. […] The compression force was adjusted to decrease the anterior-posterior diameter of the chest by 25%. After 5 minutes of PC, defibrillation was attempted with a 150 J biphasic waveform shock delivered between the right infraclavicular area and the cardiac apex. If an organized cardiac rhythm with mean aortic pressure of more than 60 mm Hg persisted for an interval of 5 minutes or more, the animal was regarded as successfully resuscitated. At 10 minutes after restoration of spontaneous circulation (ROSC), one of the three interventions was begun. […] Levosimendan diluted in physiological salt solution was administered in a loading dose of 20 μg kg^−1, infused over 10 minutes, followed by infusion of 0.4 μg kg^−1 min^−1 also in physiologic salt solution for a total duration of 230 minutes.

[5] = compared to saline placebo / control (FIG. 27)

Row | SMILES | postresuscitation ST segment elevation in ECG limb lead 2 (male domestic pigs [1]; 5 min after resuscitation (FIG. 26)) | number of postresuscitation premature ventricular beats (male domestic pigs [1]; 5 min interval after ROSC (FIG. 26)) | FAC (male domestic pigs [1]; [5]) | Postresuscitation ejection fractions (EF) (male domestic pigs [1]; [5]) | total energies of electrical shocks (male domestic pigs [1]; propranolol 0.1 mg/kg bolus at 6 min of VF) | number of electrical shocks (male domestic pigs [1]; propranolol 0.1 mg/kg bolus at 6 min of VF (FIG. 26)) | heart rate (Male Sprague-Dawley rats [2]; after administration, post-resuscitation) | mean arterial pressure (MAP) (Male Sprague-Dawley rats [2]; between the three groups) | duration of survival (Male Sprague-Dawley rats [2]; observed over 72 hours, least with saline placebo (FIG. 15)) | cardiac index (Male Sprague-Dawley rats [2]; post-resuscitation (FIG. 13)) | dP/dt40 (Male Sprague-Dawley rats [2]; vs saline placebo (FIG. 14)) | −dP/dt (Male Sprague-Dawley rats [2]; vs saline placebo (FIG. 14)) | arterial pressures (Male Sprague-Dawley rats [3]; among the three groups, at PR10 and after administration of the drugs (FIG. 4)) | heart rate (Male Sprague-Dawley rats [3]; post-resuscitation (FIG. 5)) | cardiac index (Male Sprague-Dawley rats [3]; post-resuscitation (FIG. 6)) | lusitropic (relaxation) effect (Male Sprague-Dawley rats [3]; post-resuscitation (FIG. 10)) | stroke volume (Male Sprague-Dawley rats [3]; post-resuscitation, initially (FIG. 7)) | heart rate (male domestic pigs [4]; among the three groups) | arterial pressure (male domestic pigs [4]; between levosimendan and dobutamine) | cardiac output (male domestic pigs [4]; vs saline placebo (FIG. 16))
1 | CC(C)NCC(O)COc1cccc2ccccc12 (centres unmarked) [propranolol] | lesser; also recorded: significantly improved | significantly lesser number; also recorded: significantly improved | significantly increased; also recorded: significantly greater | significantly increased; also recorded: significantly greater | significantly lesser total energies | significantly smaller number; also recorded: significantly improved |  |  |  |  |  |  |  |  |  |  |  |  |  | 
2 | CC(CCc1ccc(O)cc1)NCCc1ccc(O)c(O)c1 (centres unmarked) [Dobutamine] |  |  |  |  |  |  | moderate increase in heart rate | no significant differences | intermediate | significant increases in cardiac index | Significantly greater | Significantly greater | No significant differences | increases in heart rate of borderline significance | comparable increases in cardiac index | more profound lusitropic (relaxation) effect | significantly greater stroke volumes | did not differ | no differences in arterial pressure | Significantly greater cardiac output
